{"source": "patent US20260272874A1", "about": "“COMPOUNDS FOR THE TREATMENT AND PREVENTION OF VIRAL DISEASES” (priority 2023, published 2026)", "origin": "cited, not measured here", "key": {"[1]": {"test_system": "coronavirus"}, "[2]": {"test_system": "SARS-CoV-2"}, "[3]": {"test_system": "RNA helicase enzyme eIF4A", "conditions": "previous studies"}, "[4]": {"test_system": "corona viruses, SARS and MERS virus"}}, "data": [{"compound": "4E2RCat", "values": [{"measurement": "coronavirus replication", "setting": "[1]", "value": "capable of blocking coronavirus replication"}]}, {"compound": "COc1cc2c(c(OC)n1)[C@]1(O)[C@H](O)[C@H](CN(C)C)[C@@H](c3ccccc3)[C@]1(c1ccc(C#N)cc1)O2", "note": "[Zotatifin]", "values": [{"measurement": "antiviral activity against SARS-CoV-2", "setting": "[2]", "value": "shows antiviral activity"}]}, {"compound": "Silvesterol", "values": [{"measurement": "inhibition of RNA helicase enzyme eIF4A", "setting": "[3]", "value": "potent and selective inhibitor"}, {"measurement": "antiviral activity", "setting": "[4]", "value": "broad spectrum antiviral activity"}]}]}
